Values quoted from earlier work, collected in patent US20060051384A1, “Antiseptic compositions and methods of use” (priority 2004, published 2006).

System: methicillin resistant staphylococcus aureus

povidone-iodine
decrease of activity on addition of nasal secretions: 80-90 wt %
